# Values of other authors as cited in patent US11191839B2, “Composition for treatment of infertility in a subject” (priority 2015, dated 2021).
# Test system: couples with unexplained infertility
# Conditions: pertubation with low doses before artificial insemination; Edelstam et al. 2008
compound,measurement,value
"CCN(CC)CC(=O)Nc1c(C)cccc1C [lidocaine, Lidocaine]",Pregnancy rates,increase pregnancy rates
